Assay results: ChEMBL document CHEMBL4665624, “Synthesis of 5-(4-(1H-phenanthro[9,10-d]imidazol-2-yl)benzylidene)thiazolidine-2,4-dione as promising DNA and serum albumin-binding agents and evaluation of antitumor activity” (Eur J Med Chem, 2019)

Tests used:
EKVX = assay: Antitumor activity against human EKVX cells assessed as cell growth inhibition at 10 uM incubated for 48 hrs by sulforhodamine B assay; format: functional; conditions: read-out: GI
OVCAR-4 = assay: Antitumor activity against human OVCAR-4 cells assessed as cell growth inhibition at 10 uM incubated for 48 hrs by sulforhodamine B assay; format: functional; conditions: read-out: GI
SNB-75 = assay: Antitumor activity against human SNB-75 cells assessed as cell growth inhibition at 10 uM incubated for 48 hrs by sulforhodamine B assay; format: functional; conditions: read-out: GI
MDA-MB-435 = assay: Antitumor activity against human MDA-MB-435 cells assessed as cell growth inhibition at 10 uM incubated for 48 hrs by sulforhodamine B assay; format: functional; conditions: read-out: GI
U-251 = assay: Antitumor activity against human U251 cells assessed as cell growth inhibition at 10 uM incubated for 48 hrs by sulforhodamine B assay; format: functional; conditions: read-out: GI
IGROV-1 = assay: Antitumor activity against human IGROV1 cells assessed as cell growth inhibition at 10 uM incubated for 48 hrs by sulforhodamine B assay; format: functional; conditions: read-out: GI
NCI-H522 = assay: Antitumor activity against human NCI-H522 cells assessed as cell growth inhibition at 10 uM incubated for 48 hrs by sulforhodamine B assay; format: functional; conditions: read-out: GI
SF-268 = assay: Antitumor activity against human SF268 cells assessed as cell growth inhibition at 10 uM incubated for 48 hrs by sulforhodamine B assay; format: functional; conditions: read-out: GI
Malme-3M = assay: Antitumor activity against human MALME-3M cells assessed as cell growth inhibition at 10 uM incubated for 48 hrs by sulforhodamine B assay; format: functional; conditions: read-out: GI
SK-MEL-28 = assay: Antitumor activity against human SK-MEL-28 cells assessed as cell growth inhibition at 10 uM incubated for 48 hrs by sulforhodamine B assay; format: functional; conditions: read-out: GI
SW-620 = assay: Antitumor activity against human SW620 cells assessed as cell growth inhibition at 10 uM incubated for 48 hrs by sulforhodamine B assay; conditions: SW-620, 48 h, read-out: GI
SF-295 = assay: Antitumor activity against human SF295 cells assessed as cell growth inhibition at 10 uM incubated for 48 hrs by sulforhodamine B assay; format: functional; conditions: read-out: GI
HCT-15 = assay: Antitumor activity against human HCT15 cells assessed as cell growth inhibition at 10 uM incubated for 48 hrs by sulforhodamine B assay; format: functional; conditions: read-out: GI
BT-549 = assay: Antitumor activity against human BT-549 cells assessed as cell growth inhibition at 10 uM incubated for 48 hrs by sulforhodamine B assay; format: functional; conditions: read-out: GI
786-0 = assay: Antitumor activity against human 786-0 cells assessed as cell growth inhibition at 10 uM incubated for 48 hrs by sulforhodamine B assay; format: functional; conditions: read-out: GI
CCRF-CEM = assay: Antitumor activity against human CCRF-CEM cells assessed as cell growth inhibition at 10 uM incubated for 48 hrs by sulforhodamine B assay; format: functional; conditions: read-out: GI
NCI-H460 = assay: Antitumor activity against human NCI-H460 assessed as cell growth inhibition at 10 uM incubated for 48 hrs by sulforhodamine B assay; format: functional; conditions: read-out: GI
MDA-MB-468 = assay: Antitumor activity against human MDA-MB-468 cells assessed as cell growth inhibition at 10 uM incubated for 48 hrs by sulforhodamine B assay; format: functional; conditions: read-out: GI
OVCAR-3 = assay: Antitumor activity against human OVCAR-3 cells assessed as cell growth inhibition at 10 uM incubated for 48 hrs by sulforhodamine B assay; format: functional; conditions: read-out: GI
MOLT-4 = assay: Antitumor activity against human MOLT4 cells assessed as cell growth inhibition at 10 uM incubated for 48 hrs by sulforhodamine B assay; format: functional; conditions: read-out: GI
UO-31 = assay: Antitumor activity against human UO-31 cells assessed as cell growth inhibition at 10 uM incubated for 48 hrs by sulforhodamine B assay; format: functional; conditions: read-out: GI
SK-OV-3 = assay: Antitumor activity against human SK-OV-3 cells assessed as cell growth inhibition at 10 uM incubated for 48 hrs by sulforhodamine B assay; format: functional; conditions: read-out: GI
M14 = assay: Antitumor activity against human M14 cells assessed as cell growth inhibition at 10 uM incubated for 48 hrs by sulforhodamine B assay; format: functional; conditions: read-out: GI
K562 = assay: Antitumor activity against human K562 cells assessed as cell growth inhibition at 10 uM incubated for 48 hrs by sulforhodamine B assay; format: functional; conditions: read-out: GI
SN12C = assay: Antitumor activity against human SN12C cells assessed as cell growth inhibition at 10 uM incubated for 48 hrs by sulforhodamine B assay; format: functional; conditions: read-out: GI
LOX IMVI = assay: Antitumor activity against human LOX IMVI cells assessed as cell growth inhibition at 10 uM incubated for 48 hrs by sulforhodamine B assay; format: functional; conditions: read-out: GI
COLO 205 = assay: Antitumor activity against human COLO205 cells assessed as cell growth inhibition at 10 uM incubated for 48 hrs by sulforhodamine B assay; format: functional; conditions: read-out: GI
NCI-H226 = assay: Antitumor activity against human NCI-H226 assessed as cell growth inhibition at 10 uM incubated for 48 hrs by sulforhodamine B assay; format: functional; conditions: read-out: GI
HOP-92 = assay: Antitumor activity against human HOP92 cells assessed as cell growth inhibition at 10 uM incubated for 48 hrs by sulforhodamine B assay; format: functional; conditions: read-out: GI
NCI-H23 = assay: Antitumor activity against human NCI-H23 cells assessed as cell growth inhibition at 10 uM incubated for 48 hrs by sulforhodamine B assay; format: functional; conditions: read-out: GI
MDA-MB-231 = assay: Antitumor activity against human MDA-MB-231/ATCC cells assessed as cell growth inhibition at 10 uM incubated for 48 hrs by sulforhodamine B assay; format: functional; conditions: read-out: GI
HT-29 = assay: Antitumor activity against human HT-29 cells assessed as cell growth inhibition at 10 uM incubated for 48 hrs by sulforhodamine B assay; format: functional; conditions: read-out: GI
RXF 393 = assay: Antitumor activity against human RXF 393 cells assessed as cell growth inhibition at 10 uM incubated for 48 hrs by sulforhodamine B assay; format: functional; conditions: read-out: GI
Hs-578T = assay: Antitumor activity against human HS 578T cells assessed as cell growth inhibition at 10 uM incubated for 48 hrs by sulforhodamine B assay; format: functional; conditions: read-out: GI
SNB-19 = assay: Antitumor activity against human SNB-19 cells assessed as cell growth inhibition at 10 uM incubated for 48 hrs by sulforhodamine B assay; format: functional; conditions: read-out: GI
NCI/ADR-RES = assay: Antitumor activity against human NCI/ADR-RES cells assessed as cell growth inhibition at 10 uM incubated for 48 hrs by sulforhodamine B assay; format: functional; conditions: read-out: GI
KM12 = assay: Antitumor activity against human KM12 cells assessed as cell growth inhibition at 10 uM incubated for 48 hrs by sulforhodamine B assay; format: functional; conditions: read-out: GI
ACHN = assay: Antitumor activity against human ACHN cells assessed as cell growth inhibition at 10 uM incubated for 48 hrs by sulforhodamine B assay; format: functional; conditions: read-out: GI
MCF7 = assay: Antitumor activity against human MCF7 cells assessed as cell growth inhibition at 10 uM incubated for 48 hrs by sulforhodamine B assay; format: functional; conditions: read-out: GI
OVCAR-8 = assay: Antitumor activity against human OVCAR-8 cells assessed as cell growth inhibition at 10 uM incubated for 48 hrs by sulforhodamine B assay; format: functional; conditions: read-out: GI
HCC 2998 = assay: Antitumor activity against human HCC2998 cells assessed as cell growth inhibition at 10 uM incubated for 48 hrs by sulforhodamine B assay; format: functional; conditions: read-out: GI
HCT-116 = assay: Antitumor activity against human HCT116 cells assessed as cell growth inhibition at 10 uM incubated for 48 hrs by sulforhodamine B assay; format: functional; conditions: read-out: GI
UACC-62 = assay: Antitumor activity against human UACC-62 cells assessed as cell growth inhibition at 10 uM incubated for 48 hrs by sulforhodamine B assay; format: functional; conditions: read-out: GI
SR = assay: Antitumor activity against human SR cells assessed as cell growth inhibition at 10 uM incubated for 48 hrs by sulforhodamine B assay; format: functional; conditions: read-out: GI
HL-60(TB) = assay: Antitumor activity against human HL-60(TB) cells assessed as cell growth inhibition at 10 uM incubated for 48 hrs by sulforhodamine B assay; format: functional; conditions: read-out: GI
PC-3 = assay: Antitumor activity against human PC-3 cells assessed as cell growth inhibition at 10 uM incubated for 48 hrs by sulforhodamine B assay; format: functional; conditions: read-out: GI
RPMI-8226 = assay: Antitumor activity against human RPMI8226 cells assessed as cell growth inhibition at 10 uM incubated for 48 hrs by sulforhodamine B assay; format: functional; conditions: read-out: GI
A498 = assay: Antitumor activity against human A498 cells assessed as cell growth inhibition at 10 uM incubated for 48 hrs by sulforhodamine B assay; format: functional; conditions: read-out: GI

`CCN(CC)c1ccc(-c2nc3c4ccccc4c4ccccc4c3[nH]2)c(O)c1` was tested, and the inhibition of growth at 10 µM (EKVX) was 18.2%, the inhibition of growth at 10 µM (OVCAR-4) was < 10% and the inhibition of growth at 10 µM (SNB-75) was < 10%. For the same compound, the inhibition of growth at 10 µM (MDA-MB-435) was < 10%, the inhibition of growth at 10 µM (U-251) was < 10% and the inhibition of growth at 10 µM (IGROV-1) was < 10%. For the same compound, the inhibition of growth at 10 µM (NCI-H522) was 10.4%, the inhibition of growth at 10 µM (SF-268) was < 10% and the inhibition of growth at 10 µM (Malme-3M) was < 10%. The inhibition of growth at 10 µM (SK-MEL-28) was < 10%, the inhibition of growth at 10 µM (SW-620) was < 10% and the inhibition of growth at 10 µM (SF-295) was < 10%. For the same compound, the inhibition of growth at 10 µM (HCT-15) was 13.8%, the inhibition of growth at 10 µM (BT-549) was < 10% and the inhibition of growth at 10 µM (786-0) was < 10%. The inhibition of growth at 10 µM (CCRF-CEM) was < 10%, the inhibition of growth at 10 µM (NCI-H460) was < 10% and the inhibition of growth at 10 µM (MDA-MB-468) was < 10%. For the same compound, the inhibition of growth at 10 µM (OVCAR-3) was < 10%, the inhibition of growth at 10 µM (MOLT-4) was < 10% and the inhibition of growth at 10 µM (UO-31) was 24.4%. For the same compound, the inhibition of growth at 10 µM (SK-OV-3) was 10.1%, the inhibition of growth at 10 µM (M14) was < 10% and the inhibition of growth at 10 µM (K562) was 20.5%. The inhibition of growth at 10 µM (SN12C) was < 10%, the inhibition of growth at 10 µM (LOX IMVI) was 11.7% and the inhibition of growth at 10 µM (COLO 205) was < 10%. For the same compound, the inhibition of growth at 10 µM (NCI-H226) was < 10%, the inhibition of growth at 10 µM (HOP-92) was 24.2% and the inhibition of growth at 10 µM (NCI-H23) was < 10%. The inhibition of growth at 10 µM (MDA-MB-231) was 19.4%, the inhibition of growth at 10 µM (HT-29) was < 10% and the inhibition of growth at 10 µM (RXF 393) was < 10%. The inhibition of growth at 10 µM (Hs-578T) was < 10%, the inhibition of growth at 10 µM (SNB-19) was < 10% and the inhibition of growth at 10 µM (NCI/ADR-RES) was < 10%. The inhibition of growth at 10 µM (KM12) was < 10%, the inhibition of growth at 10 µM (ACHN) was < 10% and the inhibition of growth at 10 µM (MCF7) was 23.8%. For the same compound, the inhibition of growth at 10 µM (OVCAR-8) was < 10%, the inhibition of growth at 10 µM (HCC 2998) was < 10% and the inhibition of growth at 10 µM (HCT-116) was < 10%. For the same compound, the inhibition of growth at 10 µM (UACC-62) was 20.1%, the inhibition of growth at 10 µM (SR) was 15.8% and the inhibition of growth at 10 µM (HL-60(TB)) was < 10%. The inhibition of growth at 10 µM (PC-3) was < 10%, the inhibition of growth at 10 µM (RPMI-8226) was < 10% and the inhibition of growth at 10 µM (A498) was < 10%.
